According to patent publication US12552752B2, “Atropisomers of pyridazinone derivatives as herbicides” (FMC Corporation, priority 2020, dated 2026):

Tests used:
Type in all cases: in vivo
[1] = test system: wheat (WWT, Triticum aestivum); test: Test A postemergence, wheat; details: POST, 0 to 100 scale, approximately 10 d
Text: (§1) Seeds of plant species selected from barnyardgrass (BYG, Echinochloa crus-galli), kochia (KOC, Kochia scoparia), ragweed (common ragweed, Ambrosia elatior), ryegrass, Italian (RGI, Lolium multiflorum), foxtail, giant (FTI, Setaria faberii), foxtail, green (Setaria viridis) and pigweed (PWR, Amaranthus retroflexus) were planted into a blend of loam soil and sand and treated preemergence with a directed soil spray using test chemicals formulated in a non-phytotoxic solvent mixture which included a surfactant. At the same time, plants selected from these weed species and also wheat (WWT, Triticum aestivum), corn (CPI, Zea mays), blackgrass (BKG, Alopecurus myosuroides) and galium (GAL, catchweed bedstraw, Galium aparine) were planted in pots containing the same blend of loam soil and sand and treated with postemergence applications of test chemicals formulated in the same manner Plants ranged in height from 2 to 10 cm and were in the one- to two-leaf stage for the postemergence treatment. Treated plants and untreated controls were maintained in a greenhouse for approximately 10 d, after which time all treated plants were compared to untreated controls and visually evaluated for injury. Plant response ratings, summarized in Tables 1-4, are based on a 0 to 100 scale where 0 is no effect and 100 is complete control. A dash (−) response means no test result. The ratings are followed by a letter representing the symptomology where S is Albinism, C is Chlorosis, G is Growth Inhibition and E is Emergence.

[2] = test system: galium (GAL, catchweed bedstraw, Galium aparine); test: Test A postemergence, galium; details: POST, 0 to 100 scale, approximately 10 d
Text: as §1

[3] = test system: kochia (KOC, Kochia scoparia); test: Test A postemergence, kochia; details: POST, 0 to 100 scale, approximately 10 d
Text: as §1

[4] = test system: pigweed (PWR, Amaranthus retroflexus); test: Test A postemergence, pigweed; details: POST, 0 to 100 scale, approximately 10 d
Text: as §1

[5] = test system: ragweed (common ragweed, Ambrosia elatior); test: Test A postemergence, ragweed; details: POST, 0 to 100 scale, approximately 10 d
Text: as §1

[6] = test system: foxtail, giant (FTI, Setaria faberii); test: Test A postemergence, giant foxtail; details: POST, 0 to 100 scale, approximately 10 d
Text: as §1

[7] = test system: ryegrass, Italian (RGI, Lolium multiflorum); test: Test A preemergence, Italian ryegrass; details: PRE, 0 to 100 scale, approximately 10 d
Text: as §1

[8] = test system: barnyardgrass (BYG, Echinochloa crus-galli); test: Test A preemergence, barnyardgrass; details: PRE, 0 to 100 scale, approximately 10 d
Text: as §1

corn (CPI, Zea mays) = test: Test A postemergence, corn; details: POST, 0 to 100 scale, approximately 10 d
Text: as §1

[9] = test system: blackgrass (BKG, Alopecurus myosuroides); test: Test A postemergence, blackgrass; details: POST, 0 to 100 scale, approximately 10 d
Text: as §1

[10] = test system: ryegrass, Italian (RGI, Lolium multiflorum); test: Test A postemergence, Italian ryegrass; details: POST, 0 to 100 scale, approximately 10 d
Text: as §1

[11] = test system: barnyardgrass (BYG, Echinochloa crus-galli); test: Test A postemergence, barnyardgrass; details: POST, 0 to 100 scale, approximately 10 d
Text: as §1

[12] = test system: kochia (KOC, Kochia scoparia); test: Test A preemergence, kochia; details: PRE, 0 to 100 scale, approximately 10 d
Text: as §1

[13] = test system: pigweed (PWR, Amaranthus retroflexus); test: Test A preemergence, pigweed; details: PRE, 0 to 100 scale, approximately 10 d
Text: as §1

[14] = test system: foxtail, giant (FTI, Setaria faberii); test: Test A preemergence, giant foxtail; details: PRE, 0 to 100 scale, approximately 10 d
Text: as §1

[15] = 125 g ai/ha, listed as drawing 27
[16] = 31 g ai/ha, listed as drawing 27
[17] = 125 g ai/ha, listed as drawing 28
[18] = 31 g ai/ha, listed as drawing 28
[19] = 31 g ai/ha, listed as drawing 29
[20] = 125 g ai/ha, listed as drawing 29
[21] = 31 g ai/ha, listed as drawing 30
[22] = 125 g ai/ha, listed as drawing 30
[23] = 31 g ai/ha, listed as drawing 26
[24] = 125 g ai/ha, listed as drawing 26

With `Cc1ccc2ccccc2c1-c1c(O)c(Cl)nn(C)c1=O` (racemic) [3 (Enantiomer 3A)] the “Plant response rating WWT” value ([1]; 31 g ai/ha) was 0, the “Plant response rating GAL” value [2, 15] was 100 C and the “Plant response rating KOC” value ([3]; 125 g ai/ha) was 90 S. For the same compound, the “Plant response rating PWR” value ([4]; 125 g ai/ha) was 100 C, the “Plant response rating RWC” value [5, 15] was 100 C and the “Plant response rating FTI” value [6, 16] was 20 S. The “Plant response rating RGI” value [7, 16] was 10 S and the “Plant response rating BYG” value [8, 15] was 50 S.

With `Cc1ccc2ccccc2c1-c1c(O)c(Cl)nn(C)c1=O` (racemic) [3 (Enantiomer 3B)] the “Plant response rating CPI” value (corn (CPI, Zea mays); 1000 g ai/ha) was 50 S, the “Plant response rating WWT” value [1, 17] was 30 S and the “Plant response rating WWT” value ([1]; 1000 g ai/ha) was 90 S. For the same compound, the “Plant response rating GAL” value [2, 18] was 100 C 100 C 100 C 100 C 100 C, the “Plant response rating GAL” value [2, 17] was 100 C 100 C 100 C 100 C 100 C and the “Plant response rating GAL” value ([2]; 1000 g ai/ha) was 100 C 100 C 100 C 100 C 100 C. The “Plant response rating KOC” value ([3]; 1000 g ai/ha) was 100 C, the “Plant response rating PWR” value [4, 18] was 100 C and the “Plant response rating PWR” value ([4]; 1000 g ai/ha) was 100 C. The “Plant response rating RWC” value [5, 18] was 100 C, the “Plant response rating RWC” value ([5]; 1000 g ai/ha) was 90 S and the “Plant response rating BKG” value [9, 18] was 0. The “Plant response rating BKG” value ([9]; 1000 g ai/ha) was 80 S, the “Plant response rating RGI” value [10, 17] was 100 S and the “Plant response rating RGI” value ([10]; 1000 g ai/ha) was 100 S. The “Plant response rating BYG” value ([11]; 1000 g ai/ha) was 90 S, the “Plant response rating FTI” value [6, 17] was 90 S and the “Plant response rating FTI” value ([6]; 1000 g ai/ha) was 100 S. The “Plant response rating KOC” value [12, 18] was 10 S, the “Plant response rating KOC” value ([12]; 1000 g ai/ha) was 100 C and the “Plant response rating PWR” value [13, 18] was 90 C. For the same compound, the “Plant response rating PWR” value ([13]; 1000 g ai/ha) was 100 C, the “Plant response rating RGI” value ([7]; 1000 g ai/ha) was 100 S and the “Plant response rating BYG” value [8, 18] was 80 S. The “Plant response rating BYG” value ([8]; 1000 g ai/ha) was 100 C, the “Plant response rating FTI” value [14, 17] was 100 C and the “Plant response rating FTI” value ([14]; 1000 g ai/ha) was 100 C.

`CCC(=O)Oc1c(Cl)nn(C)c(=O)c1-c1c(C)ccc2ccc(C)cc12` (racemic) [4 (Enantiomer 4A)] was tested, and the “Plant response rating CPI” value (corn (CPI, Zea mays); [19]) was 0, the “Plant response rating CPI” value (corn (CPI, Zea mays); [20]) was 0 and the “Plant response rating WWT” value [1, 19] was 0. For the same compound, the “Plant response rating WWT” value [1, 20] was 0, the “Plant response rating GAL” value [2, 19] was 80 S and the “Plant response rating GAL” value [2, 20] was 100 C. For the same compound, the “Plant response rating KOC” value ([3]; 31 g ai/ha) was 50 S, the “Plant response rating KOC” value [3, 20] was 60 S and the “Plant response rating PWR” value [4, 19] was 90 S. For the same compound, the “Plant response rating PWR” value [4, 20] was 100 C, the “Plant response rating RWC” value [5, 19] was 80 S and the “Plant response rating RWC” value [5, 20] was 90 S. The “Plant response rating BKG” value [9, 19] was 10 C 10 C, the “Plant response rating BKG” value [9, 20] was 10 C 10 C and the “Plant response rating RGI” value [10, 19] was 10 C. For the same compound, the “Plant response rating RGI” value [10, 20] was 20 C, the “Plant response rating BYG” value [11, 19] was 0 and the “Plant response rating BYG” value [11, 20] was 30 C. The “Plant response rating FTI” value [6, 19] was 0, the “Plant response rating FTI” value [6, 20] was 30 S and the “Plant response rating KOC” value ([12]; 31 g ai/ha) was 10 C. The “Plant response rating KOC” value [12, 20] was 50 S, the “Plant response rating PWR” value [13, 19] was 90 C and the “Plant response rating PWR” value [13, 20] was 90 C. For the same compound, the “Plant response rating RGI” value [7, 19] was 0, the “Plant response rating RGI” value [7, 20] was 10 C and the “Plant response rating BYG” value [8, 19] was 0. The “Plant response rating BYG” value [8, 20] was 0, the “Plant response rating FTI” value [14, 19] was 0 and the “Plant response rating FTI” value [14, 20] was 10 S.

For `CCC(=O)Oc1c(Cl)nn(C)c(=O)c1-c1c(C)ccc2ccc(C)cc12` (racemic) [4 (Enantiomer 4B)], the “Plant response rating CPI” value (corn (CPI, Zea mays); [21]) was 10 G, the “Plant response rating CPI” value (corn (CPI, Zea mays); [22]) was 10 S and the “Plant response rating WWT” value [1, 21] was 0. The “Plant response rating WWT” value [1, 22] was 20 S, the “Plant response rating GAL” value [2, 21] was 100 C 100 C and the “Plant response rating GAL” value [2, 22] was 100 C 100 C. The “Plant response rating KOC” value [3, 22] was 50 S, the “Plant response rating PWR” value [4, 21] was 100 C 100 C 100 C 100 C and the “Plant response rating PWR” value [4, 22] was 100 C 100 C 100 C 100 C. The “Plant response rating RWC” value [5, 21] was 90 S, the “Plant response rating RWC” value [5, 22] was 100 C and the “Plant response rating BKG” value [9, 21] was 20 S. The “Plant response rating BKG” value [9, 22] was 70 S, the “Plant response rating RGI” value [10, 21] was 80 C and the “Plant response rating RGI” value [10, 22] was 90 C. The “Plant response rating BYG” value [11, 21] was 70 S, the “Plant response rating BYG” value [11, 22] was 90 S and the “Plant response rating FTI” value [6, 21] was 80 S. The “Plant response rating FTI” value [6, 22] was 90 S, the “Plant response rating KOC” value [12, 22] was 70 S and the “Plant response rating PWR” value [13, 21] was 100 C 100 C 100 C 100 C. The “Plant response rating PWR” value [13, 22] was 100 C 100 C 100 C 100 C, the “Plant response rating RGI” value [7, 21] was 80 S and the “Plant response rating RGI” value [7, 22] was 90 S. For the same compound, the “Plant response rating BYG” value [8, 21] was 100 C, the “Plant response rating BYG” value [8, 22] was 100 C and the “Plant response rating FTI” value [14, 21] was 100 C. The “Plant response rating FTI” value [14, 22] was 100 C.

`Cc1ccc2ccc(C)c(-c3c(O)c(Cl)nn(C)c3=O)c2c1` (single isomer, unassigned) [2 (Enantiomer 2B)] was tested, and the “Plant response rating CPI” value (corn (CPI, Zea mays); [23]) was 0, the “Plant response rating CPI” value (corn (CPI, Zea mays); 125 g ai/ha) was 30 G and the “Plant response rating WWT” value [1, 23] was 0. For the same compound, the “Plant response rating WWT” value [1, 24] was 30 S, the “Plant response rating GAL” value [2, 23] was 100 C and the “Plant response rating GAL” value [2, 24] was 90 C. For the same compound, the “Plant response rating KOC” value ([3]; 31 g ai/ha) was 60 S, the “Plant response rating KOC” value [3, 24] was 70 S and the “Plant response rating PWR” value ([4]; 125 g ai/ha) was 100 C 100 C 100 C 100 C. For the same compound, the “Plant response rating RWC” value [5, 23] was 100 C 100 C, the “Plant response rating RWC” value [5, 24] was 100 C 100 C and the “Plant response rating BKG” value [9, 23] was 30 C. For the same compound, the “Plant response rating BKG” value [9, 24] was 40 S, the “Plant response rating RGI” value [10, 23] was 100 C and the “Plant response rating RGI” value [10, 24] was 100 C. For the same compound, the “Plant response rating BYG” value [11, 23] was 80 C, the “Plant response rating BYG” value [11, 24] was 90 C and the “Plant response rating FTI” value [6, 23] was 80 S. For the same compound, the “Plant response rating FTI” value [6, 24] was 90 S, the “Plant response rating KOC” value [12, 23] was 0 and the “Plant response rating KOC” value [12, 24] was 90 C. The “Plant response rating RGI” value [7, 23] was 80 S, the “Plant response rating RGI” value [7, 24] was 100 S and the “Plant response rating BYG” value [8, 23] was 90 S. For the same compound, the “Plant response rating BYG” value [8, 24] was 100 C, the “Plant response rating FTI” value [14, 23] was 100 C and the “Plant response rating FTI” value [14, 24] was 100 C.
